Laboratory results reported in ChEMBL document CHEMBL1201862, “PubChem BioAssay data set” (2004).
Values joined by “and” are separate entries in the source; they are usually repeats but may differ in a detail not shown here. Identical values can stand only once.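 Where inhibition never reached the appropriate level, the endpoint shown equals the highest concentration tested. Otherwise, values were interpolated linearly from a five-concentration, 48-hour dose response in 96-well plates. The concentration for 50% growth inhibition is given as GI50.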 Active and inactive are the calls of the source. Cut-off read from the data, not from the text of the source: active = GI50 up to about 1.1 µM and inactive = higher.

Tests used:
Experiment in all cases: NCI anticancer screen, dose series, 48 h
HOP-92 = test system: HOP-92
CAKI-1 = test system: CAKI-1
SF-539 = test system: SF-539
KM12 = test system: KM12
LOX IMVI = test system: LOX IMVI
DU-145 = test system: DU-145
U-251 = test system: U-251
786-0 = test system: 786-0
SF-268 = test system: SF-268
NCI-H23 = test system: NCI-H23
OVCAR-3 = test system: OVCAR-3
SK-MEL-2 = test system: SK-MEL-2
UACC-257 = test system: UACC-257
UO-31 = test system: UO-31
MOLT-4 = test system: MOLT-4
M14 = test system: M14
CCRF-CEM = test system: CCRF-CEM

Measured: GI50

NCCNCC1CCNCC1
inactive: HOP-92 > 100 µM | CAKI-1 > 100 µM | SF-539 > 100 µM | KM12 > 100 µM | LOX IMVI > 100 µM | DU-145 > 100 µM | U-251 > 100 µM | 786-0 > 100 µM | SF-268 > 100 µM | NCI-H23 > 100 µM | OVCAR-3 > 100 µM | SK-MEL-2 > 100 µM | UACC-257 > 100 µM | UO-31 > 100 µM | MOLT-4 > 100 µM | M14 > 100 µM

CCOC(=O)CSc1nc2ccccc2c(=O)n1N
inactive: HOP-92 > 100 µM | CAKI-1 > 100 µM | SF-539 > 100 µM | KM12 > 100 µM | LOX IMVI > 100 µM | DU-145 40.9 µM | U-251 > 100 µM | 786-0 > 100 µM | SF-268 > 100 µM | NCI-H23 > 100 µM | OVCAR-3 > 100 µM | SK-MEL-2 > 100 µM | UACC-257 > 100 µM | UO-31 > 100 µM | MOLT-4 > 100 µM | M14 > 100 µM

Cc1cc2c(cc1N)C(C)C1(CCC(=O)N2Cc2ccccc2)OCCO1 (centres undefined)
inactive: HOP-92 > 100 µM | CAKI-1 > 100 µM | SF-539 > 100 µM | KM12 > 100 µM | LOX IMVI > 100 µM | DU-145 > 100 µM | U-251 > 100 µM | 786-0 > 100 µM | SF-268 83.4 µM | NCI-H23 > 100 µM | OVCAR-3 > 100 µM | SK-MEL-2 > 100 µM | UACC-257 > 100 µM | UO-31 > 100 µM | MOLT-4 > 100 µM | M14 > 100 µM

COC1C(OC(C)=O)CC(=O)OC(C)C/C=C/C=C\C(O)C(C)CC(CC=O)C1OC1OC(C)C(OC2CC(C)(O)C(OC(=O)CC(C)C)C(C)O2)C(N(C)C)C1O (centres undefined)
inactive: HOP-92 > 100 µM | CAKI-1 > 100 µM | SF-539 > 100 µM | DU-145 97.9 µM | U-251 > 100 µM | 786-0 > 100 µM | SF-268 56 µM | NCI-H23 > 100 µM | OVCAR-3 > 100 µM and 96.8 µM | SK-MEL-2 > 100 µM | UACC-257 66.5 µM and 70.1 µM | UO-31 64.9 µM and 43.8 µM | CCRF-CEM 45.3 µM and 33 µM | M14 89.3 µM and 57.5 µM

O=C(O)CNC(=O)c1c2ccccc2nc2ccccc12
inactive: HOP-92 > 100 µM | CAKI-1 > 100 µM | SF-539 > 100 µM | KM12 > 100 µM | LOX IMVI > 100 µM | DU-145 > 100 µM | U-251 > 100 µM | 786-0 > 100 µM | SF-268 > 100 µM | NCI-H23 > 100 µM | OVCAR-3 > 100 µM | SK-MEL-2 > 100 µM | UACC-257 > 100 µM | UO-31 > 100 µM | MOLT-4 > 100 µM | CCRF-CEM > 100 µM | M14 > 100 µM
